Measured values taken from PMC3859378 (Archives of biochemistry and biophysics, 2013).

Biological target: Mtb-GAPDH (Mycobacterium tuberculosis, UniProt P9WN83)
Test: time- and concentration-dependent inactivation, Kitz-Wilson re-plot
Type: biochemical
Details: read-out: Ki

Sequence of Mtb-GAPDH (P9WN83 whole entry): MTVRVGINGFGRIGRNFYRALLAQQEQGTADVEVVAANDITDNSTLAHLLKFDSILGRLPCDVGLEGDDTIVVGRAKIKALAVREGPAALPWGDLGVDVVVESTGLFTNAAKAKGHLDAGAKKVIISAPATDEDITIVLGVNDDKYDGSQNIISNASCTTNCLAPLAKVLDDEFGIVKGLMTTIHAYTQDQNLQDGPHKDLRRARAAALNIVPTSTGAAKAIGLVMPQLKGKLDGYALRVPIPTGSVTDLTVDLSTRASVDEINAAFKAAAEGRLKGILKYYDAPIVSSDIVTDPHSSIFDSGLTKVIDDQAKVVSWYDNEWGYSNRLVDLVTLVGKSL

For `NC(=O)CI` [IAM, iodoacetamide], which KI (inactivation) is on record?
Its KI (inactivation) is 7.8 mM.
